# Patent US8815857B2 (Boehringer Ingelheim International GmbH, priority 2011, dated 2014)
# Tests used:
# [1] = molecular target: T1, human soluble guanylate cyclase alpha 1 and beta 1 subunits (sGC) stably expressed in Chinese hamster ovary cells (Homo sapiens, UniProt Q02108+Q02153); experiment: sGC cellular activator assay: cGMP in CHO cells expressing human sGC, preincubated with ODQ; format: cell-based; conditions: 40 microM ODQ preincubation, 30 min at room temperature, presence or absence of 50% human serum not given, read-out: EC50 nM, Activity of Compounds in Cellular Assay
# T1 construct: expressed in transfected cells; host or cells: Chinese hamster ovary cells, stably transfected
# T1 sequence (Q02108 1-690 partner): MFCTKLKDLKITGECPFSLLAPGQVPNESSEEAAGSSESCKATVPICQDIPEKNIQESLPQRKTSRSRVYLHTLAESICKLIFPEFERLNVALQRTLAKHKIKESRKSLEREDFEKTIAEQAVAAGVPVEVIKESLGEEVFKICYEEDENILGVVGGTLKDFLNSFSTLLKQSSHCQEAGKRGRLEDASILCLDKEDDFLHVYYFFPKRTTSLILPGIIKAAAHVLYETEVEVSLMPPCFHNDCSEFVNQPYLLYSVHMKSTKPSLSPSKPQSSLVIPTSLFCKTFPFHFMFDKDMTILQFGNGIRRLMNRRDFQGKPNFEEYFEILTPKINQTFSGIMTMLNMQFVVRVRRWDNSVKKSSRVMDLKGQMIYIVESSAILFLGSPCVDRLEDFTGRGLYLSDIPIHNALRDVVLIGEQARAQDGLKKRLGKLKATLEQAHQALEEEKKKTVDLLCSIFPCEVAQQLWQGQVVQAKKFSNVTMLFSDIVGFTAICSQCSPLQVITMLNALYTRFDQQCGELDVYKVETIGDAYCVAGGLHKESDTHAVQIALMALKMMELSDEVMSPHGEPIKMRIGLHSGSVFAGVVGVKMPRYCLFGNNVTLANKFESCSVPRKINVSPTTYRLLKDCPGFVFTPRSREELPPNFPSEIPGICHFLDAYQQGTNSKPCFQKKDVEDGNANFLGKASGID
# T1 sequence (Q02153 1-619): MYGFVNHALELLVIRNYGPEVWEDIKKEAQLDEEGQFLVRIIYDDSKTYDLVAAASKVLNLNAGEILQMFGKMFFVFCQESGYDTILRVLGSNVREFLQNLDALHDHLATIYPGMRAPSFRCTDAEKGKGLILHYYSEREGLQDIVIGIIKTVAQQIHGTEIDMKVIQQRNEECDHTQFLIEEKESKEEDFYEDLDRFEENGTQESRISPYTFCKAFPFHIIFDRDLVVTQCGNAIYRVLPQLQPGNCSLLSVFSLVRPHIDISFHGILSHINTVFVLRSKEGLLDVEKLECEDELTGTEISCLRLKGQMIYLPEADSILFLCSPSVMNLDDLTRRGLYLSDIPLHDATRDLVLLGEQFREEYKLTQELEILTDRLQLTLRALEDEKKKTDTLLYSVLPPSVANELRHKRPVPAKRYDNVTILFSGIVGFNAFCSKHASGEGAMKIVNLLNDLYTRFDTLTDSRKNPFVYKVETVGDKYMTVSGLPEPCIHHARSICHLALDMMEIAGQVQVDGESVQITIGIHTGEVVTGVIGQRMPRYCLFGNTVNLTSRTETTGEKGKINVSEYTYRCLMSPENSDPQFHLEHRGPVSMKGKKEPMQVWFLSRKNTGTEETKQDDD
# Description: The sGC cellular activator assay is performed in the presence and absence of 50% human serum (HS) using Chinese hamster ovary cells that have been stably transfected to express the human soluble guanylate cyclase alpha 1 and beta 1 subunits (sGC). Cells are preincubated with 40 microM 1H-[1,2,4]oxadiazolo[4,3-a]quinoxalin-1-one (ODQ), an sGC inhibitor, for one hour in buffer containing 0.1% bovine serum albumin and 3-isobutyl-1-methylxanthine (IBMX). Concentration response curves are prepared for test compounds in DMSO. An intermediate dilution of the compounds is performed in either buffer containing IBMX or type AB HS containing IBMX. Diluted compounds are added to cells and they are incubated at room temperature for thirty minutes. cGMP is measured using a CisBio homogeneous time resolved fluorescence kit and the EC50 is calculated for each compound.
# [2] = Assessment of solubility: HT solubility in pION buffer, UV spectrophotometry; conditions: kinetic from dmso stock
# [3] = pH 6.8, aqueous buffer, Solubility (pH 6.8), pH 6.8
# [4] = pION system solution buffer, pH 4.5, pH 4.5, aqueous buffer, Solubility (pH 4.5), pH 4.5 buffer, 16-19 h incubation, 1.0% DMSO
# [5] = pION system solution buffer, pH 7.4, pH 7.4, aqueous buffer, Solubility (pH 7.4), pH 7.4 buffer, 16-19 h incubation, 1.0% DMSO
SMILES,EC50 [1] [nM],"solubility [2, 3] [µg/mL]","solubility [2, 4] [µg/mL]","solubility [2, 5] [µg/mL]"
Cc1ccc(OCc2ccc(C(=O)N(C)Cc3cnn(C)c3)cc2C)c(-c2csc(N3C[C@H]4CC[C@@H](C3)[C@H]4C(=O)O)n2)c1 [Compound 315],57,54,< 0.1,> 60
Cc1ccc(OCc2ccc(CN3CCOC(CO)C3)cc2C#N)c(-c2csc(N3C[C@H]4CC[C@@H](C3)[C@H]4C(=O)O)n2)c1 (some centres unmarked) [Compound 227],99,62,54,–
Cc1ccc(OCc2ccc(C(C)N3CCOCC3)cc2C)c(-c2csc(N3CC4CCC(C3)C4C(=O)O)n2)c1 (centres unmarked) [Compound 276],45,1.9,32,41
Cc1ccc(OCc2ccc(CN3CCS(=O)(=O)CC3)cc2C)c(-c2csc(N3C[C@@H]4[C@H](C3)[C@@H]4C(=O)O)n2)c1 [Compound 244],180,65,2.6,–
Cc1ccc(OCc2ccc(C(=O)N3CCN(C)C(=O)C3)c(C)c2)c(-c2csc(N3C[C@H]4CC[C@@H](C3)[C@H]4C(=O)O)n2)c1 [Compound 286],37,83,1,–
Cc1ccc(OCc2ccc(C(=O)N(C)Cc3ccn(C)n3)cc2C)c(-c2csc(N3C[C@H]4CC[C@@H](C3)[C@H]4C(=O)O)n2)c1 [Compound 343],46,52,< 0.1,–
Cc1ccc(OCc2ccc(C(=O)N(C)Cc3ncc[nH]3)cc2C)c(-c2csc(N3C[C@H]4CC[C@@H](C3)[C@H]4C(=O)O)n2)c1 [Compound 334],160,24,11,–
Cc1ccc(OCc2ccc(CN3CCOC(C#N)C3)cc2C#N)c(-c2csc(N3C[C@H]4CC[C@@H](C3)[C@H]4C(=O)O)n2)c1 (some centres unmarked) [Compound 355],9.2,7,0.77,–
Cc1ccc(OCc2ccc(CN3CCO[C@H](C)C3)cc2C#N)c(-c2csc(N3C[C@H]4CC[C@@H](C3)[C@H]4C(=O)O)n2)c1 [Compound 357],24,11,2.3,–
Cc1ccc(OCc2ccc(CN3CCS(=O)(=O)CC3)cc2C)c(-c2csc(N3CC[C@@]4(C(=O)O)C[C@H]4C3)n2)c1 [Compound 223],5.2,2.5,< 0.1,–
Cc1ccc(OCc2ccc(CN3CCS(=O)(=O)CC3)cc2C#N)c(-c2csc(N3C[C@H]4CC[C@@H](C3)[C@H]4C(=O)O)n2)c1 [Compound 267],44,13,< 0.1,–
CCN(CCC#N)C(=O)c1ccc(COc2ccc(C)cc2-c2csc(N3C[C@H]4CC[C@@H](C3)[C@H]4C(=O)O)n2)c(C)c1 [Compound 307],24,37,0.15,–
Cc1ccc(OCc2ccc(CN3CCOCC3)cc2C)c(-c2csc(N3CC[C@]4(C(=O)O)C[C@@H]4C3)n2)c1 [Compound 220],42,4.8,42,4
Cc1ccc(OCc2ccc(C(=O)N3CCOCC3)cc2C)c(-c2csc(N3CC4(CC4C(=O)O)C3)n2)c1 (centres unmarked) [Compound 256],500,82,0.69,–
Cc1ccc(OCc2ccc(CN3CCN(C(=O)C4CC4)CC3)cc2C)c(-c2csc(N3CC(CC(=O)O)C3)n2)c1 [Compound 249],140,51,45,–
"CC[C@]1(C(=O)O)[C@@H]2CC[C@H]1CN(c1nc(-c3cc(C)ccc3OCc3ccc(C(=O)N4CCCCC4)cc3C)cs1)C2 [Compound 250, 8-ethyl-3-(4-{5-methyl-2-[2-methyl-4-(piperidine-1-carbonyl)-benzyloxy]-phenyl}-thiazole-2-yl)-3-aza-bicyclo[3.2.1]octane-8(syn)-carboxylic acid]",140,13,< 0.1,–

# Further lines, results first:
EC50 [1] [nM],"solubility [2, 3] [µg/mL]","solubility [2, 4] [µg/mL]","solubility [2, 5] [µg/mL]",SMILES
180,61,1.2,–,Cc1ccc(OCc2ccc(C(=O)N3CCCCC3)cc2C)c(-c2csc(N3C[C@@H]4[C@H](C3)[C@@H]4C(=O)O)n2)c1 [Compound 243]
120,78,1.3,–,Cc1ccc(OCc2ccc(C(=O)N3CC[C@H](O)C3)cc2C)c(-c2csc(N3C[C@H]4CC[C@@H](C3)[C@H]4C(=O)O)n2)c1 [Compound 313]
29,59,0.17,–,Cc1ccc(OCc2ccc(C(=O)N3CC[C@H](CO)C3)cc2C)c(-c2csc(N3C[C@H]4CC[C@@H](C3)[C@H]4C(=O)O)n2)c1 [Compound 325]
63,68,2.4,–,Cc1ccc(OCc2ccc(C(=O)N3CCNC(=O)C3)cc2C)c(-c2csc(N3C[C@H]4CC[C@@H](C3)[C@H]4C(=O)O)n2)c1 [Compound 314]
14,71,< 0.1,–,Cc1ccc(OCc2ccc(C(=O)N3CCn4ncnc4C3)cc2C)c(-c2csc(N3C[C@H]4CC[C@@H](C3)[C@H]4C(=O)O)n2)c1 [Compound 327]
44,60,53,–,Cc1ccc(OCc2ccc(C(=O)N3CCN(C)CC3)cc2C)c(-c2csc(N3C[C@H]4CC[C@@H](C3)[C@H]4C(=O)O)n2)c1 [Compound 300]
14,1.5,< 0.1,–,Cc1ccc(OCc2ccc(C(=O)N3CCCC(C#N)C3)cc2C)c(-c2csc(N3C[C@H]4CC[C@@H](C3)[C@H]4C(=O)O)n2)c1 (some centres unmarked) [Compound 337]
19,42,0.15,–,COC1CCCN(C(=O)c2ccc(COc3ccc(C)cc3-c3csc(N4C[C@H]5CC[C@@H](C4)[C@H]5C(=O)O)n3)c(C)c2)C1 (some centres unmarked) [Compound 322]
23,60,< 0.1,–,Cc1ccc(OCc2ccc(C(=O)N(C)C)cc2C)c(-c2csc(N3C[C@H]4CC[C@@H](C3)[C@H]4C(=O)O)n2)c1 [Compound 304]
21,33,–,–,Cc1ccc(OCc2ccc(C(=O)N3CC(F)(F)C3)cc2C)c(-c2csc(N3C[C@H]4CC[C@@H](C3)[C@H]4C(=O)O)n2)c1 [Compound 360]
110,59,1.1,–,Cc1ccc(OCc2ccc(C(=O)N3CCn4cnnc4C3)cc2C)c(-c2csc(N3C[C@H]4CC[C@@H](C3)[C@H]4C(=O)O)n2)c1 [Compound 333]
29,62,< 0.1,–,CO[C@H]1CCN(C(=O)c2ccc(COc3ccc(C)cc3-c3csc(N4C[C@H]5CC[C@@H](C4)[C@H]5C(=O)O)n3)c(C)c2)C1 [Compound 328]
20,66,0.88,–,Cc1ccc(OCc2ccc(C(=O)N3CCN(C)C(=O)C3)cc2C)c(-c2csc(N3C[C@H]4CC[C@@H](C3)[C@H]4C(=O)O)n2)c1 [Compound 308]
9.7,29,< 0.1,–,CCc1cc(C(=O)N2CCOCC2)ccc1COc1ccc(C)cc1-c1csc(N2C[C@H]3CC[C@@H](C2)[C@H]3C(=O)O)n1 [Compound 288]
